Assay results: ChEMBL document CHEMBL1201862, “PubChem BioAssay data set” (2004)
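48-hour exposure; five concentrations; linearly interpolated endpoints. Abbreviation: GI50, concentration required for 50% inhibition of growth.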 Calls of active or inactive are those of the source. No stated cut-off is given here; in the data, active = GI50 up to about 1.1 µM and inactive = higher.

How the values were obtained:
Test in all cases: NCI tumour cell line growth inhibition, 48 h
SR = tested on: SR
LOX IMVI = tested on: LOX IMVI
UACC-62 = tested on: UACC-62
Malme-3M = tested on: Malme-3M
UO-31 = tested on: UO-31
SN12C = tested on: SN12C
MDA-MB-231 = tested on: MDA-MB-231
A498 = tested on: A498
M14 = tested on: M14
U-251 = tested on: U-251
CCRF-CEM = tested on: CCRF-CEM
MOLT-4 = tested on: MOLT-4
BT-549 = tested on: BT-549
IGROV-1 = tested on: IGROV-1
NCI-H460 = tested on: NCI-H460
K562 = tested on: K562
A549 = tested on: A549
KM12 = tested on: KM12
EKVX = tested on: EKVX
HOP-92 = tested on: HOP-92

| Structure (SMILES) | GI50 (SR) | GI50 (LOX IMVI) | GI50 (UACC-62) | GI50 (Malme-3M) | GI50 (UO-31) | GI50 (SN12C) | GI50 (MDA-MB-231) | GI50 (A498) | GI50 (M14) | GI50 (U-251) | GI50 (CCRF-CEM) | GI50 (MOLT-4) | GI50 (BT-549) | GI50 (IGROV-1) | GI50 (NCI-H460) | GI50 (K562) | GI50 (A549) | GI50 (KM12) | GI50 (EKVX) | GI50 (HOP-92) |
| --- | --- | --- | --- | --- | --- | --- | --- | --- | --- | --- | --- | --- | --- | --- | --- | --- | --- | --- | --- | --- |
| COc1cc(OCc2ccc3oc(=O)c(-c4ccccc4)nc3c2)cc(OC)c1OC | > 100 µM (inactive) | > 100 µM (inactive) | > 100 µM (inactive) | > 100 µM (inactive) | > 100 µM (inactive) | > 100 µM (inactive) | > 100 µM (inactive) | > 100 µM (inactive) | > 100 µM (inactive) | > 100 µM (inactive) | > 100 µM (inactive) | > 100 µM (inactive) | > 100 µM (inactive) | > 100 µM (inactive) | > 100 µM (inactive) | > 100 µM (inactive) | > 100 µM (inactive) |  |  |  |
| COP(=O)(C(/C=C/c1ccccc1)OC(C)=O)[C@@H]1CCCC[C@H]1N(CC(C)(C)C)C(C)=O (stereo partly drawn) | 15 µM (inactive) | 15.8 µM (inactive) | 14 µM (inactive) | 18.2 µM (inactive) | 13.9 µM (inactive) | 14.8 µM (inactive) | 14.8 µM (inactive) |  | 14.4 µM (inactive) | 15.8 µM (inactive) | 14.5 µM (inactive) | 7.93 µM (inactive) | 16.8 µM (inactive) | 10.6 µM (inactive) | 13.4 µM (inactive) | 22.4 µM (inactive) | 16.8 µM (inactive) | 26.2 µM (inactive) | 20.7 µM (inactive) |  |
| CC[C@H](NC(=O)OC(C)(C)C)C(=O)NCP(=O)(OCc1ccc([N+](=O)[O-])cc1)OCc1ccc([N+](=O)[O-])cc1 | 26.9 µM (inactive) | 32.4 µM (inactive) | 18.3 µM (inactive) | 53.5 µM (inactive) | 14.8 µM (inactive) | 29.1 µM (inactive) | 26.4 µM (inactive) |  | 30.9 µM (inactive) | 21.6 µM (inactive) | 21.6 µM (inactive) | 21.5 µM (inactive) | 31.7 µM (inactive) | 38.5 µM (inactive) | 27.8 µM (inactive) |  | 27.7 µM (inactive) | 26.8 µM (inactive) |  | 31.5 µM (inactive) |
| O=c1[nH]nc(Cn2c3ccc(Br)cc3c3nc4ccccc4nc32)n1C1CCCCC1 | 2.08 µM (inactive) | < 0.01 µM (active) | 21.5 µM (inactive) |  | > 100 µM (inactive) | > 100 µM (inactive) | > 100 µM (inactive) | 32.3 µM (inactive) | 35.1 µM (inactive) | 30.5 µM (inactive) |  | < 0.01 µM (active) | 42.3 µM (inactive) | > 100 µM (inactive) | 29.4 µM (inactive) | 20.7 µM (inactive) | 43.6 µM (inactive) | 54 µM (inactive) | 90.8 µM (inactive) | 46.3 µM (inactive) |
| Nc1nc(Cl)c(/N=N/c2ccc(Cl)cc2)c(NCC2(CO)CCC(CCc3ccccc3)C2)n1 (stereo not drawn) |  | 1.79 µM (inactive) | 10.4 µM (inactive) | 14.8 µM (inactive) | 2.1 µM (inactive) | 9.46 µM (inactive) | 12.2 µM (inactive) | 13.2 µM (inactive) | 8.81 µM (inactive) | 14.1 µM (inactive) | 1.21 µM (inactive) | 1.29 µM (inactive) | 6.81 µM (inactive) | 6.22 µM (inactive) | 12.7 µM (inactive) | 0.841 µM (active) | 14.1 µM (inactive) | 13.2 µM (inactive) | 8.79 µM (inactive) | 11.1 µM (inactive) |
| COC(=O)Nc1nc2cc(NS(=O)(=O)c3ccc(Cl)cc3)ccc2[nH]1 |  | 4.44 µM (inactive) | 6.71 µM (inactive) | 13.1 µM (inactive) | 11.7 µM (inactive) | 16.3 µM (inactive) | 8.34 µM (inactive) | 3.05 µM (inactive) | 3.77 µM (inactive) | 12.2 µM (inactive) | 4.35 µM (inactive) | 4.53 µM (inactive) | 13.4 µM (inactive) | 2.59 µM (inactive) | 5.98 µM (inactive) | 6.3 µM (inactive) | 15.9 µM (inactive) | 3.61 µM (inactive) | 5.78 µM (inactive) | 1.84 µM (inactive) |
| CCCCCCCCCCCCCCCCCCNc1ccn(C2OC(COP(=O)(O)OCC3OC(n4cc(C)c(=O)[nH]c4=O)CC3N=[N+]=[N-])C(O)C2O)c(=O)n1 (stereo not drawn) | 18.4 µM (inactive) | 16.4 µM (inactive) | 19.1 µM (inactive) | 16.9 µM (inactive) | 21 µM (inactive) | 21.7 µM (inactive) | 22.1 µM (inactive) |  | 20.2 µM (inactive) | 16.7 µM (inactive) | 15.5 µM (inactive) | 16.4 µM (inactive) | 19.7 µM (inactive) | 19.1 µM (inactive) | 21 µM (inactive) | 18.7 µM (inactive) | 52 µM (inactive) | 20.3 µM (inactive) | 26.3 µM (inactive) | 59.6 µM (inactive) |
| OC(c1ccc(C(F)(F)F)cc1)C(F)(F)c1nc2ccccc2o1 (stereo not drawn) | > 100 µM (inactive) | > 100 µM (inactive) | > 100 µM (inactive) |  | > 100 µM (inactive) |  | > 100 µM (inactive) |  | > 100 µM (inactive) | > 100 µM (inactive) | > 100 µM (inactive) | > 100 µM (inactive) | > 100 µM (inactive) | > 100 µM (inactive) | > 100 µM (inactive) | 56.8 µM (inactive) |  | > 100 µM (inactive) | > 100 µM (inactive) | > 100 µM (inactive) |
| CC(C#N)N(CCc1ccccc1)C(=O)c1ccccc1 (stereo not drawn) | > 100 µM (inactive) | > 100 µM (inactive) | > 100 µM (inactive) | > 100 µM (inactive) | 84.9 µM (inactive) | > 100 µM (inactive) | > 100 µM (inactive) | > 100 µM (inactive) | > 100 µM (inactive) | > 100 µM (inactive) | > 100 µM (inactive) | 47.6 µM (inactive) | > 100 µM (inactive) | > 100 µM (inactive) |  | > 100 µM (inactive) | > 100 µM (inactive) | > 100 µM (inactive) | > 100 µM (inactive) |  |
| COC(=O)Cc1c([C@@H]2Nc3ccccc3[C@H]2CC(=O)OC)[nH]c2ccccc12 | 8.02 µM (inactive) | 21.6 µM (inactive) | 13.9 µM (inactive) |  | 16.6 µM (inactive) | 30.3 µM (inactive) | 18.5 µM (inactive) | 34.7 µM (inactive) |  | 20.4 µM (inactive) | 20.7 µM (inactive) | 10.9 µM (inactive) | 18.5 µM (inactive) | 9.79 µM (inactive) | 21.1 µM (inactive) | 11 µM (inactive) | 31.7 µM (inactive) |  | 43 µM (inactive) | 45.8 µM (inactive) |
| Cc1ccc(S(=O)(=O)n2cncc2CO)cc1 | > 100 µM (inactive) | > 100 µM (inactive) | > 100 µM (inactive) | > 100 µM (inactive) | > 100 µM (inactive) | > 100 µM (inactive) | > 100 µM (inactive) |  | > 100 µM (inactive) | > 100 µM (inactive) | > 100 µM (inactive) | > 100 µM (inactive) | > 100 µM (inactive) | > 100 µM (inactive) | > 100 µM (inactive) | > 100 µM (inactive) | > 100 µM (inactive) | > 100 µM (inactive) | > 100 µM (inactive) |  |
| CCCSc1cc(Cl)c(C)cc1S(=O)(=O)n1ccnc1O | > 100 µM (inactive) | > 100 µM (inactive) | > 100 µM (inactive) | > 100 µM (inactive) | > 100 µM (inactive) | > 100 µM (inactive) | > 100 µM (inactive) | > 100 µM (inactive) | > 100 µM (inactive) | > 100 µM (inactive) | > 100 µM (inactive) | > 100 µM (inactive) | > 100 µM (inactive) | > 100 µM (inactive) | > 100 µM (inactive) | > 100 µM (inactive) | > 100 µM (inactive) | > 100 µM (inactive) | > 100 µM (inactive) |  |
| O=C(CSc1nccc(=O)[nH]1)c1ccccc1 | > 100 µM (inactive) | 78.3 µM (inactive) | 46.2 µM (inactive) | 82.4 µM (inactive) | > 100 µM (inactive) | 49.9 µM (inactive) | 61.5 µM (inactive) |  | > 100 µM (inactive) | > 100 µM (inactive) |  | > 100 µM (inactive) | > 100 µM (inactive) | > 100 µM (inactive) | 80.5 µM (inactive) | > 100 µM (inactive) | > 100 µM (inactive) | > 100 µM (inactive) | > 100 µM (inactive) | > 100 µM (inactive) |
| CN(C)c1ccc(/C=C/C(=O)N[C@@H]2C(=O)N3[C@@H]2SC(C)(C)[C@@H]3C(=O)O)cc1 | > 100 µM (inactive) | > 100 µM (inactive) | > 100 µM (inactive) |  | > 100 µM (inactive) | > 100 µM (inactive) | > 100 µM (inactive) | > 100 µM (inactive) | > 100 µM (inactive) | > 100 µM (inactive) | > 100 µM (inactive) | > 100 µM (inactive) | > 100 µM (inactive) |  | > 100 µM (inactive) | > 100 µM (inactive) | > 100 µM (inactive) | > 100 µM (inactive) | > 100 µM (inactive) |  |
| Nc1ccnc2c1ncn2[C@H]1C[C@H](O)[C@@H](CO)O1 | > 100 µM (inactive) | > 100 µM (inactive) | > 100 µM (inactive) |  | > 100 µM (inactive) | > 100 µM (inactive) | > 100 µM (inactive) | > 100 µM (inactive) | > 100 µM (inactive) | > 100 µM (inactive) | > 100 µM (inactive) | > 100 µM (inactive) | > 100 µM (inactive) | > 100 µM (inactive) | > 100 µM (inactive) |  | > 100 µM (inactive) | > 100 µM (inactive) | > 100 µM (inactive) | > 100 µM (inactive) |
